Test results as given in patent publication US10597388B2, “Pyridazinone herbicides” (FMC CORPORATION, priority 2014, dated 2020).

How the values were obtained:
Assay in all cases: Test D controlled growth environment herbicide test, pre- and postemergence
Type in all cases: in vivo
[1] = test system: chickweed (common chickweed, Stellaria media)
Summary of the method: (§1)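 Species sown in silt loam and sprayed preemergence, or grown in peat-based medium to 2–18 cm (1- to 4-leaf stage) and sprayed postemergence, with compounds in non-phytotoxic solvent plus surfactant. Visual injury scored versus controls after 14–21 d in a controlled environment, 0 (no effect) to 100 (complete control).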

[2] = test system: canarygrass (Phalaris minor)
Summary of the method: as §1

[3] = test system: buckwheat, wild (wild buckwheat, Polygonum convolvulus)
Summary of the method: as §1

[4] = test system: Russian thistle (Salsola kali)
Summary of the method: as §1

[5] = test system: pigweed (Amaranthus retroflexus)
Summary of the method: as §1

[6] = test system: galium (catchweed bedstraw, Galium aparine)
Summary of the method: as §1

[7] = test system: wheat, spring (spring wheat, Triticum aestivum)
Summary of the method: as §1

[8] = test system: field violet (Viola arvensis)
Summary of the method: as §1

[9] = test system: oat, wild (wild oat, Avena fatua)
Summary of the method: as §1

kochia (Kochia scoparia) = test system: kochia (Kochia scoparia)
Summary of the method: as §1

[10] = test system: barley, spring (spring barley, Hordeum vulgare)
Summary of the method: as §1

[11] = test system: oilseed rape (Brassica napus)
Summary of the method: as §1

[12] = test system: wheat, winter (winter wheat, Triticum aestivum)
Summary of the method: as §1

[13] = Postemergence, 31 g ai/ha, scale 0 to 100 (0 no effect, 100 complete control)
[14] = Postemergence, 125 g ai/ha, visual rating on scale 0 (no effect) to 100 (complete control), 14 to 21 d
[15] = Postemergence, 250 g ai/ha, scale 0 to 100 (0 no effect, 100 complete control)
[16] = Preemergence, 125 g ai/ha, scale 0 to 100 (0 no effect, 100 complete control)
[17] = Preemergence, 250 g ai/ha, scale 0 to 100, 0 no effect, 100 complete control
[18] = postemergence, 62 g ai/ha, scale 0 to 100, 0 no effect, 100 complete control
[19] = Preemergence, 62 g ai/ha, scale 0 to 100 (0 no effect, 100 complete control)

CCCC(=O)Oc1c(C)nn(C)c(=O)c1-c1c(C)sc2ccc(C)cc12 [Compound 105]
Chickweed plant response rating [1, 13]: 90 | Plant response rating, Chickweed [1, 14]: 100 | Plant response rating, Chickweed [1, 15]: 100 | Plant response rating (scale of 0 to 100), Chickweed ([1]; Preemergence, 31 g ai/ha): 100 | Plant response rating (scale of 0 to 100), Chickweed ([1]; Preemergence, 62 g ai/ha): 100 | Plant response rating, Chickweed [1, 16]: 100 | Plant response rating, Chickweed [1, 17]: 100 | Plant response rating, Chickweed [1, 18]: 90 | Canarygrass plant response rating [2, 13]: 40 | Plant response rating, Canarygrass [2, 14]: 75 | Plant response rating, Canarygrass [2, 15]: 80 | Plant response rating (scale of 0 to 100), Canarygrass ([2]; Preemergence, 31 g ai/ha): 85 | Plant response rating (scale of 0 to 100), Canarygrass ([2]; Preemergence, 62 g ai/ha): 95 | Plant response rating, Canarygrass [2, 16]: 95 | Plant response rating, Canarygrass [2, 17]: 98 | Plant response rating, Canarygrass [2, 18]: 50 | Buckwheat, Wild plant response rating [3, 13]: 65 | Plant response rating, Buckwheat, Wild [3, 14]: 100 | Plant response rating, Buckwheat, Wild [3, 15]: 100 | Plant response rating (scale of 0 to 100), Buckwheat, Wild ([3]; Preemergence, 31 g ai/ha): 15 | Plant response rating, Buckwheat, Wild [3, 19]: 5 | Plant response rating, Buckwheat, Wild [3, 16]: 5 | Plant response rating, Buckwheat, Wild [3, 17]: 25 | Plant response rating, Buckwheat, Wild [3, 18]: 95 | Russian Thistle plant response rating [4, 13]: 40 | Plant response rating, Russian Thistle [4, 14]: 50 | Plant response rating, Russian Thistle [4, 15]: 50 | Plant response rating (scale of 0 to 100), Russian Thistle ([4]; Preemergence, 31 g ai/ha): 0 | Plant response rating (scale of 0 to 100), Russian Thistle ([4]; Preemergence, 62 g ai/ha): 60 | Plant response rating, Russian Thistle [4, 16]: 70 | Plant response rating, Russian Thistle [4, 17]: 90 | Plant response rating, Russian Thistle [4, 18]: 45 | Pigweed plant response rating [5, 13]: 85 | Plant response rating, Pigweed [5, 14]: 100 | Plant response rating, Pigweed [5, 15]: 100 | Plant response rating (scale of 0 to 100), Pigweed ([5]; Preemergence, 31 g ai/ha): 100 | Plant response rating (scale of 0 to 100), Pigweed ([5]; Preemergence, 62 g ai/ha): 100 | Plant response rating, Pigweed [5, 16]: 100 | Plant response rating, Pigweed [5, 17]: 100 | Plant response rating, Pigweed [5, 18]: 100 | Galium plant response rating [6, 13]: 85 | Plant response rating, Galium [6, 14]: 95 | Plant response rating, Galium [6, 15]: 100 | Plant response rating (scale of 0 to 100), Galium ([6]; Preemergence, 31 g ai/ha): 80 | Plant response rating (scale of 0 to 100), Galium ([6]; Preemergence, 62 g ai/ha): 95 | Plant response rating, Galium [6, 16]: 85 | Plant response rating, Galium [6, 17]: 100 | Plant response rating, Galium [6, 18]: 95 | Wheat, Spring plant response rating [7, 13]: 0 | Plant response rating, Wheat, Spring [7, 14]: 20 | Plant response rating, Wheat, Spring [7, 15]: 25 | Plant response rating (scale of 0 to 100), Wheat, Spring ([7]; Preemergence, 31 g ai/ha): 0 | Plant response rating (scale of 0 to 100), Wheat, Spring ([7]; Preemergence, 62 g ai/ha): 0 | Plant response rating, Wheat, Spring [7, 16]: 0 | Plant response rating, Wheat, Spring [7, 17]: 40 | Plant response rating, Wheat, Spring [7, 18]: 10 | Field Violet plant response rating [8, 13]: 85 | Plant response rating, Field Violet [8, 14]: 95 | Plant response rating, Field Violet [8, 15]: 100 | Plant response rating (scale of 0 to 100), Field Violet ([8]; Preemergence, 31 g ai/ha): 100 | Plant response rating (scale of 0 to 100), Field Violet ([8]; Preemergence, 62 g ai/ha): 100 | Plant response rating, Field Violet [8, 16]: 100 | Plant response rating, Field Violet [8, 17]: 100 | Plant response rating, Field Violet [8, 18]: 90 | Oat, Wild plant response rating [9, 13]: 80 | Plant response rating, Oat, Wild [9, 14]: 95 | Plant response rating, Oat, Wild [9, 15]: 100 | Plant response rating (scale of 0 to 100), Oat, Wild ([9]; Preemergence, 31 g ai/ha): 80 | Plant response rating (scale of 0 to 100), Oat, Wild ([9]; Preemergence, 62 g ai/ha): 80 | Plant response rating, Oat, Wild [9, 16]: 85 | Plant response rating, Oat, Wild [9, 17]: 100 | Plant response rating, Oat, Wild [9, 18]: 85 | Kochia plant response rating (kochia (Kochia scoparia); [13]): 85 | Plant response rating, Kochia (kochia (Kochia scoparia); [14]): 95 | Plant response rating, Kochia (kochia (Kochia scoparia); [15]): 100 | Plant response rating (scale of 0 to 100), Kochia (kochia (Kochia scoparia); Preemergence, 31 g ai/ha): 10 | Plant response rating (scale of 0 to 100), Kochia (kochia (Kochia scoparia); Preemergence, 62 g ai/ha): 50 | Plant response rating, Kochia (kochia (Kochia scoparia); [16]): 95 | Plant response rating, Kochia (kochia (Kochia scoparia); [17]): 100 | Plant response rating, Kochia (kochia (Kochia scoparia); [18]): 95 | Barley, Spring plant response rating [10, 13]: 0 | Plant response rating, Barley, Spring [10, 14]: 10 | Plant response rating, Barley, Spring [10, 15]: 15 | Plant response rating (scale of 0 to 100), Barley, Spring ([10]; Preemergence, 31 g ai/ha): 0 | Plant response rating, Barley, Spring [10, 19]: 0 | Plant response rating, Barley, Spring [10, 16]: 0 | Plant response rating, Barley, Spring [10, 17]: 20 | Plant response rating, Barley, Spring [10, 18]: 5 | Oilseed Rape plant response rating [11, 13]: 0 | Plant response rating, Oilseed Rape [11, 14]: 25 | Plant response rating, Oilseed Rape [11, 15]: 60 | Plant response rating (scale of 0 to 100), Oilseed Rape ([11]; Preemergence, 31 g ai/ha): 55 | Plant response rating (scale of 0 to 100), Oilseed Rape ([11]; Preemergence, 62 g ai/ha): 60 | Plant response rating, Oilseed Rape [11, 16]: 50 | Plant response rating, Oilseed Rape [11, 17]: 50 | Plant response rating, Oilseed Rape [11, 18]: 15 | Wheat, Winter plant response rating [12, 13]: 0 | Plant response rating, Wheat, Winter [12, 14]: 10 | Plant response rating, Wheat, Winter [12, 15]: 20 | Plant response rating (scale of 0 to 100), Wheat, Winter ([12]; Preemergence, 31 g ai/ha): 0 | Plant response rating (scale of 0 to 100), Wheat, Winter ([12]; Preemergence, 62 g ai/ha): 0 | Plant response rating, Wheat, Winter [12, 16]: 5 | Plant response rating, Wheat, Winter [12, 17]: 5 | Plant response rating, Wheat, Winter [12, 18]: 5
